Test results published in ChEMBL document CHEMBL3045319, “Synthesis, antitumor activity, and structureactivity relationship of some 4H-pyrano[3,2-h]quinoline and 7H-pyrimido[4,5:6,5]pyrano[3,2-h]quinoline derivatives” (Med Chem Res, 2013).
≈ marks a conversion by molar mass, not a printed value.

Key:
[1] = system: MCF7; assay: Cytotoxicity against Homo sapiens (human) MCF7 cells assessed as cell viability at 6.25 ug/ml after 48 hr by MTT assay relative to control; type: functional; conditions: MCF7, 48 h, read-out: Activity
[2] = system: MCF7; assay: Cytotoxicity against Homo sapiens (human) MCF7 cells assessed as cell viability at 3.125 ug/ml after 48 hr by MTT assay relative to control; type: functional; conditions: MCF7, 48 h, read-out: Activity
[3] = system: HepG2; assay: Cytotoxicity against Homo sapiens (human) HepG2 cells assessed as cell viability at 1.56 ug/ml after 48 hr by MTT assay relative to control; type: functional; conditions: HepG2, 48 h, read-out: Activity
[4] = Cytotoxicity against Homo sapiens (human) HCT cells assessed as cell viability at 25 ug/ml after 48 hr by MTT assay relative to control; type: functional; conditions: read-out: Activity
[5] = Cytotoxicity against Homo sapiens (human) HCT cells assessed as cell viability at 50 ug/ml after 48 hr by MTT assay relative to control; type: functional; conditions: read-out: Activity
[6] = system: HepG2; assay: Cytotoxicity against Homo sapiens (human) HepG2 cells assessed as cell viability at 6.25 ug/ml after 48 hr by MTT assay relative to control; type: functional; conditions: HepG2, 48 h, read-out: Activity
[7] = Cytotoxicity against Homo sapiens (human) HCT cells assessed as cell viability at 1.56 ug/ml after 48 hr by MTT assay relative to control; type: functional; conditions: read-out: Activity
[8] = Cytotoxicity against Homo sapiens (human) HCT cells assessed as cell viability at 12.5 ug/ml after 48 hr by MTT assay relative to control; type: functional; conditions: read-out: Activity
[9] = system: MCF7; assay: Cytotoxicity against Homo sapiens (human) MCF7 cells assessed as cell viability at 25 ug/ml after 48 hr by MTT assay relative to control; type: functional; conditions: MCF7, 48 h, read-out: Activity
[10] = system: HepG2; assay: Cytotoxicity against Homo sapiens (human) HepG2 cells after 48 hr by MTT assay; type: functional, cell-based; conditions: Homo sapiens, HepG2, 48 h; read-out: IC50
[11] = Cytotoxicity against Homo sapiens (human) HCT cells assessed as cell viability at 3.125 ug/ml after 48 hr by MTT assay relative to control; type: functional; conditions: read-out: Activity
[12] = system: HepG2; assay: Cytotoxicity against Homo sapiens (human) HepG2 cells assessed as cell viability at 3.125 ug/ml after 48 hr by MTT assay relative to control; type: functional; conditions: HepG2, 48 h, read-out: Activity
[13] = system: HepG2; assay: Cytotoxicity against Homo sapiens (human) HepG2 cells assessed as cell viability at 12.5 ug/ml after 48 hr by MTT assay relative to control; type: functional; conditions: HepG2, 48 h, read-out: Activity
[14] = system: MCF7; assay: Cytotoxicity against Homo sapiens (human) MCF7 cells assessed as cell viability at 1.56 ug/ml after 48 hr by MTT assay relative to control; type: functional; conditions: MCF7, 48 h, read-out: Activity
[15] = Cytotoxicity against Homo sapiens (human) HCT cells after 48 hr by MTT assay; type: functional, cell-based
[16] = system: HepG2; assay: Cytotoxicity against Homo sapiens (human) HepG2 cells assessed as cell viability at 50 ug/ml after 48 hr by MTT assay relative to control; type: functional; conditions: HepG2, 48 h, read-out: Activity
[17] = system: MCF7; assay: Cytotoxicity against Homo sapiens (human) MCF7 cells assessed as cell viability at 12.5 ug/ml after 48 hr by MTT assay relative to control; type: functional; conditions: MCF7, 48 h, read-out: Activity
[18] = system: MCF7; assay: Cytotoxicity against Homo sapiens (human) MCF7 cells assessed as cell viability at 50 ug/ml after 48 hr by MTT assay relative to control; type: functional; conditions: MCF7, 48 h, read-out: Activity
[19] = system: MCF7; assay: Cytotoxicity against Homo sapiens (human) MCF7 cells after 48 hr by MTT assay; type: functional, cell-based; conditions: MCF7, 48 h
[20] = system: HepG2; assay: Cytotoxicity against Homo sapiens (human) HepG2 cells assessed as cell viability at 25 ug/ml after 48 hr by MTT assay relative to control; type: functional; conditions: HepG2, 48 h, read-out: Activity
[21] = Cytotoxicity against Homo sapiens (human) HCT cells assessed as cell viability at 6.25 ug/ml after 48 hr by MTT assay relative to control; type: functional; conditions: read-out: Activity

| Structure (SMILES) | viability at 6.25 µg/mL [1] | viability at 3.125 µg/mL [2] | viability at 1.56 µg/mL [3] | viability at 25 µg/mL [4] | viability at 50 µg/mL [5] | viability at 6.25 µg/mL [6] | viability at 1.56 µg/mL [7] | viability at 12.5 µg/mL [8] | viability at 25 µg/mL [9] | IC50 [10] | viability at 3.125 µg/mL [11] | viability at 3.125 µg/mL [12] | viability at 12.5 µg/mL [13] | viability at 1.56 µg/mL [14] | IC50 [15] | viability at 50 µg/mL [16] | viability at 12.5 µg/mL [17] | viability at 50 µg/mL [18] | viability at 25 µg/mL [20] | viability at 6.25 µg/mL [21] | also measured |
| --- | --- | --- | --- | --- | --- | --- | --- | --- | --- | --- | --- | --- | --- | --- | --- | --- | --- | --- | --- | --- | --- |
| N#CC1=C(/N=C/NN)Oc2c(ccc3cccnc23)C1c1ccc(Cl)cc1 (stereo unspecified) | 55% | 67% | 88.2% | 29.2% | 24.8% | 60.9% | 81.4% | 36% | 35.2% | 8.7 µg/mL (≈ 23.1 µM) | 65.2% | 78.4% | 36% | 78.8% | 7.4 µg/mL (≈ 19.7 µM) | 24.9% | 45% | 21.4% | 29.1% | 55.6% | IC50 [19]: 8.4 µg/mL (≈ 22.4 µM) |
| CN/C=N/C1=C(C#N)C(c2ccc(Cl)cc2)c2ccc3cccnc3c2O1 (stereo unspecified) | 50.1% | 65% | 52.8% | 13.6% | 11.1% | 39% | 58.2% | 22.2% | 21.4% | 1.9 µg/mL (≈ 5.07 µM) | 41.4% | 45.7% | 30.4% | 76.8% | 2.3 µg/mL (≈ 6.14 µM) | 9.28% | 29.2% | 16.8% | 17.9% | 29.4% | IC50 [19]: 6.3 µg/mL (≈ 16.8 µM) |
| N#CC1=C(/N=C/N)Oc2c(ccc3cccnc23)C1c1ccc(Cl)cc1 (stereo unspecified) | 67.4% | 79.7% | 96.6% | 21.8% | 18.7% | 76.7% | 94.9% | 26.3% | 37.5% | 23.6 µg/mL (≈ 65.4 µM) | 80.2% | 87.4% | 63.9% | 91.3% | 6.8 µg/mL (≈ 18.8 µM) | 35.8% | 43.6% | 23.1% | 43.4% | 52.4% | IC50 [19]: 10.5 µg/mL (≈ 29.1 µM) |
| Cc1ccc2ccc3c(c2n1)OC(/N=C/N)=C(C#N)C3c1ccc(Cl)cc1 (stereo unspecified) | 89.3% | 96.5% | 80.5% | 44.2% | 35.9% | 68% | 91.6% | 65.2% | 74.2% | 32.9 µg/mL (≈ 87.8 µM) | 82.2% | 76.7% | 57.7% | 98.4% | 21.7 µg/mL (≈ 57.9 µM) | 41.2% | 81.5% | 63.6% | 53.8% | 70.7% | IC50 [19]: > 50 µg/mL |
| Cc1ccc2ccc3c(c2n1)OC(/N=C/N)=C(C#N)C3c1ccc(Br)cc1 (stereo unspecified) | 89.8% | 97.3% | 98.8% | 34.1% | 24.8% | 81.2% | 86.9% | 42.9% | 69.6% | > 50 µg/mL | 65% | 89.3% | 65.5% | 100% | 6.2 µg/mL (≈ 14.8 µM) | 52.3% | 81.2% | 56.2% | 60.7% | 49.8% | IC50 [19]: > 50 µg/mL |
| CN(C)/C=N/C1=C(C#N)C(c2ccc(Cl)cc2)c2ccc3cccnc3c2O1 (stereo unspecified) | 83.5% | 92% | 100% | 71.3% | 49.5% | 93% | 100% | 77.7% | 58% | 47.9 µg/mL (≈ 123 µM) | 98.5% | 98.3% | 85.6% | 98.7% | 49.4 µg/mL (≈ 127 µM) | 48.1% | 75.6% | 37.7% | 77.8% | 88.1% | IC50 [19]: 29.3 µg/mL (≈ 75.3 µM) |
| Cc1ccc2ccc3c(c2n1)OC(/N=C/N(C)C)=C(C#N)C3c1ccc(Cl)cc1 (stereo unspecified) | 76.9% | 87.2% | 100% | 53.5% | 30.5% | 97.8% | 82% | 69.7% | 49.6% | > 50 µg/mL | 78.7% | 100% | 94.7% | 97% | 28.2 µg/mL (≈ 70 µM) | 68.2% | 68.2% | 35% | 81.5% | 74.2% | IC50 [19]: 24.4 µg/mL (≈ 60.6 µM) |
| CC[C@]1(O)C[C@@H]2CN(CCc3c([nH]c4ccccc34)[C@@](C(=O)OC)(c3cc4c(cc3OC)N(C)[C@H]3[C@@](O)(C(=O)OC)[C@H](OC(C)=O)[C@]5(CC)C=CCN6CC[C@]43[C@@H]65)C2)C1 [VINBLASTINE] | 48.8% | 60.4% | 72.1% | 21.7% | 16.3% | 45.1% | 53.4% | 28.2% | 15.2% | – | 47.5% | 55% | 24.2% | 76.2% | 2.6 µg/mL (≈ 3.21 µM) | 14.4% | 29.6% | 7.82% | 16.1% | 38.1% | – |
